Publication doi:10.1101/2024.12.09.627564, “Cannabinoid inhibition of mechanosensitive K^+ channels” (bioRxiv, 2024)

Tests used:
[1] = target: T1, Homo sapiens TREK-2 (Homo sapiens, UniProt P57789); assay: Excised inside-out patch recording of TREK-2 from Xenopus oocytes; assay type: biochemical
T1 construct: TREK-2 amino acids 1–538; expressed in transfected cells; host or cells: Xenopus laevis oocytes, cRNA injection
T1 sequence (P57789 1-538): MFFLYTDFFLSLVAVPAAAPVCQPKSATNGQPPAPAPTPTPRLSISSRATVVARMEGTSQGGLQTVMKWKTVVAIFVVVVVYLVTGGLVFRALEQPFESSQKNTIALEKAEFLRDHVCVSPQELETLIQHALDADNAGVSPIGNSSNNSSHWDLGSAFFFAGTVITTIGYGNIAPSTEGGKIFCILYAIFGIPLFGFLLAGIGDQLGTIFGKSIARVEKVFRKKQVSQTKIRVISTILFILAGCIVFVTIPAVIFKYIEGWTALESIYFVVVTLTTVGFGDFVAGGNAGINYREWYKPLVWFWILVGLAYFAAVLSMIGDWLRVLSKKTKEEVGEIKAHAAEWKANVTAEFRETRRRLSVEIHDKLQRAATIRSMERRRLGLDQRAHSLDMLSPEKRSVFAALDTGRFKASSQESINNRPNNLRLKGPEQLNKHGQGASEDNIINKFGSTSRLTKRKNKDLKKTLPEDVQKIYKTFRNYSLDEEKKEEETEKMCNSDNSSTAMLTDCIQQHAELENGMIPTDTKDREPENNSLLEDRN
Excerpt: (§1) For patch clamp recording from Xenopus oocytes, genes encoding full-length Homo sapiens TRAAK (UniProt Q9NYG8–2), TREK-1 (UniProt O95069), and TREK-2 (UniProt P57789) were codon optimized for eukaryotic expression, synthesized (Genewiz), and cloned into a modified pGEMHE vector using Xho1 and EcoR1 restriction sites. The transcribed messages encode H. sapiens TRAAK amino acids 1–393, TREK-1 amino acids 1–426, or TREK-2 amino acids 1–538 with an additional three amino acids (SNS) at the C terminus. TRAAK mutants were introduced by polymerase chain reaction (PCR). Linearized DNA was transcribed in vitro using T7 polymerase. Complementary RNA (0.1 to 10 ng for TRAAK, TREK-1, TREK-2, and mutants) in 50 nL H2O was injected into Xenopus laevis oocytes extracted from anesthetized frogs. Currents were recorded at 25 °C from inside-out patches excised from oocytes 1 to 5 d after RNA injection. […]
(§2) Patches were evaluated with voltage-step protocols to confirm TRAAK expression and minimal non-specific leak based on reversal potential. Currents were recorded using an Axopatch 200B amplifier (Molecular Devices) at a bandwidth of 1 kHz and digitized with an Digidata 1550B (Molecular Devices) at 100–500 kHz using pClamp10.7 software. […] In an effort to minimize variability associated with differences in resting membrane tension, we targeted patches with low basal curvature and low resting channel activity and ensured measured pressure difference across the patch was as close to zero as possible at rest to prevent mechanical activation of channels. Data were analyzed using Clampfit 10.7, Excel, and Graphpad Prism software. […]
(§3) To avoid cannabinoid absorption to plastic, cannabinoid solutions were made in glass vials and diluted by weight, perfusion was performed using glass tubing pulled from borosilicate glass Pasteur pipettes (Fisherbrand, Cat# 13–678-20C), and recordings were performed in glass chambers. Channel activity was continuously recorded during perfusion steps. […]

[2] = target: T2, TRAAKA270P (Homo sapiens, UniProt Q9NYG8, A244P); assay: Excised patch recording of TRAAK mutant A270P; assay type: biochemical
T2 construct: The transcribed messages encode H. sapiens TRAAK amino acids 1–393; expressed in transfected cells; host or cells: Xenopus laevis oocytes, cRNA injection
T2 sequence (Q9NYG8 1-393 A244P): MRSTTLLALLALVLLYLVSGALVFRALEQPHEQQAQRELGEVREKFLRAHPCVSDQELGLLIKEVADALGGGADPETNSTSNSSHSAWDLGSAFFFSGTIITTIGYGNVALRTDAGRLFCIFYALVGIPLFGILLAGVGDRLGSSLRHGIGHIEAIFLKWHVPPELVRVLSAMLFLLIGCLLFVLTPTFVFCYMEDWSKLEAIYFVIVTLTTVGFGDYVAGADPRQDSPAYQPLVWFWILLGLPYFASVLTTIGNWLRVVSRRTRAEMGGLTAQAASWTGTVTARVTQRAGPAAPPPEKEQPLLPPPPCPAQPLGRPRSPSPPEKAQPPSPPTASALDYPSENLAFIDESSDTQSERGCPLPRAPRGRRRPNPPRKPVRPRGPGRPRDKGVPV
Excerpt: as §1, §2, §3

In the case of `C=C(C)[C@@H]1CCC(C)=C[C@H]1c1c(O)cc(CCCCC)cc1O` [CBD, Cannabidiol], the IC50 [1] is reported as 1300 nM, the Hill-coefficient ([1]; TREK-2 dose-response) is reported as 3.8 and the “fold less sensitive than TRAAK” value ([1]; TREK-2 vs TRAAK) is reported as ~ 10 fold. For the same compound, the IC50 [2] was 1120 ± 40 nM, the “inhibition of channel activity at high concentration” value ([2]; 10 μM CBD) was “fully inhibited” and the “fold less sensitive than wild-type TRAAK” value ([2]; A270P vs wild-type) was ~ 8 fold.
